According to patent US20220000873A1, “S3QELS TO PROTECT AGAINST INTESTINAL PERMEABILITY” (Buck Institute for Research on Aging, priority 2018, published 2022):

Columns and labels:
[1] = test system: C57BL/6 mice fed a high-fat diet; assay: Mouse intestinal permeability (plasma FITC-dextran after gavage and fecal albumin); format: in vivo; conditions: high-fat diet (60% kcal) with 200 mg/kg S3QEL in diet, 16 weeks; plasma FITC-dextran and fecal albumin (FIG. 5A, B)
Protocol: (§1) Six-week-old C57BL/6 mice were purchased from Jackson Laboratories and acclimated in-house for two weeks before the study. At 8 weeks of age, mice were randomized into groups based on weight and fed either a control semi-purified diet D12450J containing 10% fat kcal, a 60% fat kcal diet D12492, or a custom-mixed 60% fat kcal diet D12492 containing 200 mg/kg of S3QELs. Diets were purchased from Research Diets and were gamma-irradiated. Mice were maintained on the experimental diets for 16 weeks in total. Food consumption was measured daily in a semiquantitative fashion. The food was weighed before placing in the cage, and then weighed again 24 h later. The total food weight difference within 24 h was divided by the number of mice in the cage to determine average food consumption per mouse. All experiments involving the use of mice were reviewed and approved by the Institutional Animal Care and Use Committee (IACUC) of the Buck Institute.
Mice were fasted for 4 h prior to assay. […] Blood plasma samples were diluted appropriately using 1×PBS and FITC-dextran fluorescence was measured at Ex 485 nm/Em 535 nm. FITC-dextran amount was determined using standard curves generated from a known amount of FITC-dextran titrated in plasma from control or high fat-fed mice. […]

[2] = test system: C57BL/6 mice fed a high-fat diet; assay: Mouse intestinal gene expression (qPCR, colon and distal small intestine); format: in vivo; conditions: high-fat diet with 200 mg/kg S3QEL, 16 weeks
Protocol: as §1, with “The total food weight difference within 24 h was divided by the number of mice in the cage to determine average food consumption per mouse. All experiments involving the use of mice were reviewed and approved by the Institutional Animal Care and Use Committee (IACUC) of the Buck Institute.” left out
RNA from the fly intestine lysates, and the aqueous phase from the mouse intestinal Trizol lysates, were further processed to isolate RNA using a Quick-RNA™ MiniPrep Kit (Zymo Research) according to the manufacturer's guidelines. […] The quantity and quality of fly and mouse RNA samples were determined using a NanoDrop 1000 spectrophotometer (Thermo Scientific). 1 μg of total RNA from either fly or mouse intestine was used in a total reaction volume of […] containing 4 μL of iScript Reverse Transcription Supermix (Bio-Rad) to synthesize cDNA according to the manufacturer's guidelines. cDNA was stored at −20° C. before carrying out quantitative RTPCR. […]

Structure (SMILES): Cc1ccc(-n2ncc3c(N(Cc4ccccc4)C(C)C)ncnc32)cc1Cl [S3QEL2.2]
- increases in intestinal permeability in mice [1]: strongly protected
- decrease in tight-junction gene expression ([2]; both colon and distal small intestine (FIG. 5C, FIG. 11)): protected against the decrease
- decrease in mucin gene expression ([2]; both colon and distal small intestine (FIG. 5D, FIG. 11)): protected against the decrease
